This note sets out measurements from patent publication US20080249034A1, “Use of Macrolides for Treating Intestinal Inflammation” (ZAMBON S.P.A., priority 2005, published 2008).

In this assay the test system is DNBS-induced colitis. As to the kind of experiment: DNBS-induced colitis in rats, macroscopic damage score. The assay is classed as in vivo, rat. The following applies: Sprague-Dawley rats, intrarectal DNBS on day 2, DNBS group score 10.7±0.4. How it is done:
Albino male Sprague-Dawley rats, 200-250 g body weight, were treated with intrarectal DNBS (2,4-dinitrobenzensufonic acid, 30 mg in 0.25 ml of 50% ethanol) under a light anaesthesia with diethyl ether. In control experiments, the animals received 0.25 ml of saline (NaCl 0.9%). Animals were subjected to subsequent experimental procedures 6 days after induction of colitis with DNBS (Blandizzi et al., Altered prejunctional modulation of intestinal cholinergic and noradrenergic pathways by alpha-2-adrenoceptors in the presence of experimental colitis. Br J Pharmacol 139, 309-320, 2003). […]
At the end of treatments, animals were sacrificed and the severity of colonic inflammation was macroscopically evaluated in accordance with the criteria previously reported by Wallace and Keenan (Wallace J L and Keenan C M, An orally active inhibitor of leukotriene synthesis accelerates healing in a rat model of colitis. Am J Physiol, 258, G527-G534, 1990) with minor modifications (Blandizzi, et al., 2003). Briefly, the macroscopic evaluation is based on the following criteria: presence of adhesions between the colon and other intra-abdominal organs; consistency of colonic faecal material (as an indirect marker of diarrhea); thickening of the colonic wall; presence and extension of hyperemia and macroscopic mucosal damage (assessed with the aid of a ruler) (FIG. 2). […]

On to `CC[C@H]1OC(=O)[C@H](C)[C@@H](O)[C@H](C)[C@@H](O[C@@H]2O[C@H](C)C[C@H](N(C)C(C)=O)[C@H]2O)C(C)(O)C[C@@H](C)[C@H](O)[C@H](C)[C@@H](O)[C@]1(C)O` (some centres unmarked) [macrolide], for which the “anti-inflammatory effect (change of macroscopic damage score)” value is −24% (100 μmol/kg/day by intragastric gavage for 7 days) and −51% (300 μmol/kg/day by intragastric gavage for 7 days).
